The values that follow come from patent publication US20060229302A1, “Tricyclic indole derivatives and their use in the treatment of alzheimer's disease” (priority 2003, published 2006).

SMILES strings stand for the structures. Counter-ions that a name gives are not always drawn. Like-named read-outs stand apart in the source and are kept apart here.

For this experiment, the target named is Asp-2 (Homo sapiens, UniProt P56817). In words: Asp-2 inhibitory assay. In kind it is biochemical. As to the method:
(I) Asp-2 Inhibitory Assay
For each compound being assayed, in a 384 well plate, is added:
This is prepared by diluting 2 ml of a 2 mM DMSO solution of the substrate into 400 ml of buffer (100 mM Sodium acetate pH=4.5, 1 l Milli-Q water, 0.06% Triton X-100 (0.5 ml/l), pH adjusted to 4.5 using glacial acetic acid).
c) 10 μl enzyme solution. This is prepared by diluting 16 ml of a 500 nM enzyme solution into 384 ml of buffer (prepared as above).
Blank wells (enzyme solution replaced by buffer) are included as controls on each plate.

Where [1] appears, read: FAM-[[…]]-TAMRA substrate, pH 4.5, 1 h room temperature, read-out: inhibition in the Asp-2 inhibitory assay.

Asp-2, sequence (P56817 46-501): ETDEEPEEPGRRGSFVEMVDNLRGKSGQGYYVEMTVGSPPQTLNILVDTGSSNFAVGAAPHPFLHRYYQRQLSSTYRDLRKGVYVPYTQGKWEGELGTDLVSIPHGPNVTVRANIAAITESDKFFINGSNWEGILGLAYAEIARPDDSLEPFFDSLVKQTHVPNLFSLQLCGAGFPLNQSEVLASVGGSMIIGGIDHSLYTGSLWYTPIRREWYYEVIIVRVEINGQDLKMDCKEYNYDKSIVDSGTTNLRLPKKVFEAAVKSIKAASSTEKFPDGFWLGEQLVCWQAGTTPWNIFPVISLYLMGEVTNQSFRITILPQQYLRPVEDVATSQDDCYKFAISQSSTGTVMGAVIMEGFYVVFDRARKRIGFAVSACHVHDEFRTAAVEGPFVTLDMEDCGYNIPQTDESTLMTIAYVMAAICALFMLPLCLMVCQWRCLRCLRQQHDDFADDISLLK

For `CCc1cn2c3c(cc(C(=O)N[C@@H](Cc4ccccc4)[C@H](O)CNCc4cncc(C(=O)NC)c4)cc13)N(C)S(=O)(=O)CC2` [Example E97, 7-Ethyl-N-[(1S,2R)-2 hydroxy-3-[({5-[(methylamino)carbonyl]-3-pyridinyl}methyl)amino]-1-(phenylmethyl)propyl]-1-methyl-3,4-dihydro-1H-[1,2,5]thiadiazepino[3,4,5-hi]indole-9-carboxamide 2,2-dioxide formate salt], the IC50 under setting [1] was under 1000 nM.
With `CCCc1cn2c3c(cc(C(=O)N[C@@H](Cc4ccccc4)[C@H](O)CNCc4cnn(CC)c4)cc13)N(CC)S(=O)(=O)CC2` [Example E51, 1-Ethyl-N-[(1S,2R)-3-{[(1-ethyl-1H-pyrazol-4-yl)methyl]amino}-2-hydroxy-1-(phenylmethyl)propyl]-7-propyl-3,4-dihydro-1H-[1,2,5]thiadiazepino[3,4,5-hi]indole-9-carboxamide 2,2-dioxide formate salt], the IC50 under setting [1] was under 1000 nM.
Still for that read-out and setting: in the case of `CCc1cn2c3c(cc(C(=O)N[C@@H](Cc4ccccc4)[C@H](O)CNC4CCCCC4)cc13)N(CC)S(=O)(=O)CC2` [Example E27, N-[(1S,2R)-3-(Cyclohexylamino)-2-hydroxy-1-(phenylmethyl)propyl]-1,7-diethyl-3,4-dihydro-1H-[1,2,5]thiadiazepino[3,4,5-hi]indole-9-carboxamide 2,2-dioxide formate salt] it was under 1000 nM.
For `CCc1cn2c3c(cc(C(=O)N[C@@H](Cc4ccccc4)[C@H](O)CNCc4cnn(CC)c4)cc13)N(C)S(=O)(=O)C(C)C2` (stereo partly drawn) [Example E16, 7-Ethyl-N-[(1S,2R)-3-{[(1-ethyl-1H-pyrazol-4-yl)methyl]amino}-2-hydroxy-1-(phenylmethyl)propyl]-1,3-dimethyl-3,4-dihydro-1H-[1,2,5]thiadiazepino[3,4,5-hi]indole-9-carboxamide 2,2-dioxide formate salt], the IC50 under setting [1] is under 1000 nM.
The same measure, in the same setting: in the case of `CCc1cn2c3c(cc(C(=O)N[C@@H](Cc4ccccc4)[C@H](O)CNC4CCC(F)(F)CC4)cc13)N(C)S(=O)(=O)CC2` [Example E106, N-[(1S,2R)-3-[(4,4-Difluorocyclohexyl)amino]-2-hydroxy-1-(phenylmethyl)propyl]-7-ethyl-1-methyl-3,4-dihydro-1H-[1,2,5]thiadiazepino[3,4,5-hi]indole-9-carboxamide 2,2-dioxide formate salt] it was under 1000 nM; in that of `CCc1cn2c3c(cc(C(=O)N[C@@H](Cc4ccccc4)[C@H](O)CNCc4cnn(CC)c4)cc13)N(C)S(=O)(=O)CC2` [Example E15, 7-Ethyl-N-[(1S,2R)-3-{[(1-ethyl-1H-pyrazol-4-yl)methyl]amino}-2-hydroxy-1-(phenylmethyl)propyl]-1-methyl-3,4-dihydro-1H-[1,2,5]thiadiazepino[3,4,5-hi]indole-9-carboxamide 2,2-dioxide formate salt], under 1000 nM.
Still for that read-out and setting: under `CCCc1cn2c3c(cc(C(=O)N[C@@H](Cc4ccccc4)[C@H](O)CNCc4cccc(C(F)(F)F)c4)cc13)N(C)S(=O)(=O)CC2` [Example E44, N-[(1S,2R)-2-Hydroxy-1-(phenylmethyl)-3-({[3-(trifluoromethyl)phenyl]methyl}amino)propyl]-1-methyl-7-propyl-3,4-dihydro-1H-[1,2,5]thiadiazepino[3,4,5-hi]indole-9-carboxamide 2,2-dioxide formate salt] stands under 1000 nM.
As to `CCc1cn2c3c(cc(C(=O)N[C@@H](Cc4ccccc4)[C@H](O)CNCc4cccc(C(F)(F)F)c4)cc13)N(C)S(=O)(=O)C(C)C2` (stereo partly drawn) [Example E6, 7-Ethyl-N-[(1S,2R)-2-hydroxy-1-(phenylmethyl)-3-({[3-(trifluoromethyl)phenyl]methyl}amino)propyl]-1,3-dimethyl-3,4-dihydro-1H-[1,2,5]thiadiazepino [3,4,5-hi]indole-9-carboxamide 2,2-dioxide formate salt], the IC50 under setting [1] was under 1000 nM.
For `CCCc1cn2c3c(cc(C(=O)N[C@@H](Cc4ccccc4)[C@H](O)CNCc4cccc(C(F)(F)F)c4)cc13)N(CC)S(=O)(=O)CC2` [Example E48, 1-Ethyl-N-[(1S,2R)-2-hydroxy-1-(phenylmethyl)-3-({[3-(trifluoromethyl)phenyl]methyl}amino)propyl]-7-propyl-3,4-dihydro-1H-[1,2,5]thiadiazepino[3,4,5-hi]indole-9-carboxamide 2,2-dioxide formate salt], the IC50 under setting [1] was under 1000 nM.
Turning to `CCc1cn2c3c(cc(C(=O)N[C@@H](Cc4ccccc4)[C@H](O)CNC4CCCCC4)cc13)N(C)S(=O)(=O)CC2` [Example E7, N-[(1S,2R)-3-(Cyclohexylamino)-2-hydroxy-1-(phenylmethyl)propyl]-7-ethyl-1-methyl-3,4-dihydro-1H-[1,2,5]thiadiazepino[3,4,5-hi]indole-9-carboxamide 2,2-dioxide formate salt], the IC50 is under 1000 nM.
Consider `CCc1cn2c3c(cc(C(=O)N[C@@H](Cc4ccccc4)[C@H](O)CNC(C)(C)CCCC(C)C)cc13)N(C)S(=O)(=O)C(C)C2` (stereo partly drawn) [Example E9, 7-Ethyl-N-{(1S,2R)-2-hydroxy-1-(phenylmethyl)-3-[(1,1,5-trimethylhexyl)amino]propyl}-1,3-dimethyl-3,4-dihydro-1H-[1,2,5]thiadiazepino[3,4,5-hi]indole-9-carboxamide 2,2-dioxide formate salt], for which the IC50 under setting [1] is under 1000 nM.
For the molecule `CCc1cn2c3c(cc(C(=O)N[C@@H](Cc4ccccc4)[C@H](O)CN[C@H]4CCc5ccccc54)cc13)N(C)S(=O)(=O)CC2` [Example E72, N-[(1S,2R)-3-[(1S)-2,3-Dihydro-1H-inden-1-ylamino]-2-hydroxy-1-(phenylmethyl)propyl]-7-ethyl-1-methyl-3,4-dihydro-1H-[1,2,5]thiadiazepino[3,4,5-hi]indole-9-carboxamide 2,2-dioxide formate salt], the IC50 under setting [1] is under 1000 nM.
`CCCc1cn2c3c(cc(C(=O)N[C@@H](Cc4ccccc4)[C@H](O)CNCc4cnn(CC)c4)cc13)N(C)S(=O)(=O)CC2` [Example E47, N-[(1S,2R)-3-{[(1-Ethyl-1H-pyrazol-4-yl)methyl]amino}-2-hydroxy-1-(phenylmethyl)propyl]-1-methyl-7-propyl-3,4-dihydro-1H-[1,2,5]thiadiazepino[3,4,5-hi]indole-9-carboxamide 2,2-dioxide formate salt]: the IC50 under setting [1] was under 1000 nM.
Take `CCc1cn2c3c(cc(C(=O)N[C@@H](Cc4cccc(Cl)c4)[C@H](O)CNC4CCCCC4)cc13)N(C)S(=O)(=O)CC2` [Example E32, N-[(1S,2R)-1-[(3-Chlorophenyl)methyl]-3-(cyclohexylamino)-2-hydroxypropyl]-7-ethyl-1-methyl-3,4-dihydro-1H-[1,2,5]thiadiazepino[3,4,5-hi]indole-9-carboxamide 2,2-dioxide formate salt]: the IC50 under setting [1] is under 1000 nM.
The same measure, in the same setting: under `CCc1cn2c3c(cc(C(=O)N[C@@H](Cc4cccc(F)c4)[C@H](O)CNC4CCCCC4)cc13)N(C)S(=O)(=O)CC2` [Example E36, N-{(1S,2R)-3-(Cyclohexylamino)-1-[(3-fluorophenyl)methyl]-2-hydroxypropyl}-7-ethyl-1-methyl-3,4-dihydro-1H-[1,2,5]thiadiazepino[3,4,5-hi]indole-9-carboxamide 2,2-dioxide formate salt] stands under 1000 nM.
In the case of `CCc1cn2c3c(cc(C(=O)N[C@@H](Cc4ccccc4)[C@H](O)CNCc4cccc(OC)c4)cc13)N(C)S(=O)(=O)CC2` [Example E3, 7-Ethyl-N-[(1S,2R)-2-hydroxy-3-({[3-(methyloxy)phenyl]methyl}amino)-1-(phenylmethyl)propyl]-1-methyl-3,4-dihydro-1H-[1,2,5]thiadiazepino[3,4,5-hi]indole-9-carboxamide 2,2-dioxide], the IC50 under setting [1] is under 1000 nM.
For `CCc1cn2c3c(cc(C(=O)N[C@@H](Cc4cccc(F)c4)[C@H](O)CNC4CCOCC4)cc13)N(C)S(=O)(=O)CC2` [Example E37, 7-Ethyl-N-[(1S,2R)-1-[(3-fluorophenyl)methyl]-2-hydroxy-3-(tetrahydro-2H-pyran-4-ylamino)propyl]-1-methyl-3,4-dihydro-1H-[1,2,5]thiadiazepino[3,4,5-hi]indole-9-carboxamide 2,2-dioxide formate salt], the IC50 under setting [1] is under 1000 nM.
As for `CCc1cn2c3c(cc(C(=O)N[C@@H](Cc4cc(F)cc(F)c4)[C@H](O)CNC4CC4)cc13)N(C)S(=O)(=O)CC2` [Example E39, N-{(1S,2R)-3-(Cyclopropylamino)-1-[(3,5-difluorophenyl)methyl]-2-hydroxypropyl}-7-ethyl-1-methyl-3,4-dihydro-1H-[1,2,5]thiadiazepino[3,4,5-hi]indole-9-carboxamide 2,2-dioxide formate salt], the IC50 under setting [1] was under 1000 nM.
Turning to `CCc1cn2c3c(cc(C(=O)N[C@@H](Cc4ccccc4)[C@H](O)CNC(C)(C)c4cccc(C(F)(F)F)c4)cc13)N(C)S(=O)(=O)CC2` [Example E11, 7-Ethyl-N-[(1S,2R)-2-hydroxy-3-({1-methyl-1-[3-(trifluoromethyl)phenyl]ethyl}amino)-1-(phenylmethyl)propyl]-1-methyl-3,4-dihydro-1H-[1,2,5]thiadiazepino[3,4,5-hi]indole-9-carboxamide 2,2-dioxide formate salt], under setting [1], the IC50 is under 1000 nM.
For the molecule `CCc1cn2c3c(cc(C(=O)N[C@@H](Cc4ccccc4)[C@H](O)CNCc4cccc(C)c4)cc13)N(C)S(=O)(=O)CC2` [Example E70, 7-Ethyl-N-[(1S,2R)-2-hydroxy-3-{[(3-methylphenyl)methyl]amino}-1-(phenylmethyl)propyl]-1-methyl-3,4-dihydro-1H-[1,2,5]thiadiazepino[3,4,5-hi]indole-9-carboxamide 2,2-dioxide formate salt], under setting [1], the IC50 was under 1000 nM.
